Measurements: PMC12261233, “Photoactivatable Cyclometalated Ir(III) Compound Penetrates the Blood-Brain Barrier in 3D Spheroidal and Advanced 3D Organoid Models of Inherently Resistant and Aggressive Brain Tumors” (ACS Pharmacology & Translational Science, 2025)
Where two headings read alike, the source gives them in different places.

How the values were obtained:
[1] = tested on: U87MG cells; assay: Antiproliferative activity, 2D monolayer, SRB assay; format: cell-based, human; settings: for PI (phototoxicity index) 2D: IC50 dark / IC50 420 nm irradiated; for IC50: U87MG 2D monolayer, 90 min treatment, SRB
Procedure: The antiproliferative activity of the compounds under investigation was assessed using the Sulforhodamine B (SRB) assay on both 2D cell monolayers and 3D spheroids. For the 2D cell monolayer assay, cells were seeded in 96-well tissue culture plates at a density of 3 × 10^3 cells/well in 100 μL of culture medium. Following overnight incubation in a humidified CO2 incubator, the medium was replaced, and the cells were treated with the investigated compounds in a final volume of 200 μL/well of Earle’s Balanced Salt Solution (EBSS). The cells were then exposed to the tested compounds for 1.5 h under dark conditions (5% CO2, 37 °C) and subsequently irradiated with blue light (420 nm) for 30 min at an intensity of 58 W/m^2. After treatment, the samples were washed with Phosphate-Buffered Saline (PBS) and replenished with 200 μL of culture medium. Following an additional 70-h incubation, the cells were washed with PBS, fixed with trichloroacetic acid at 4 °C for 1 h, and stained with 0.4% SRB dye for 30 min. The stained cells were dissolved with Tris (10 mM), and the cell viability was assessed by measuring the absorbance at 570 nm using an Absorbance Reader (SPARK TECAN, SCHOELLER). […] After the 72-h spheroid formation period, the samples were treated and irradiated as described for the 2D cultures. […] The luminescence signal was detected using the plate reader SPARK (Tecan, Manedorf, Switzerland), and the IC50 values were calculated from the survival curves. All experiments were conducted in triplicate to ensure the reliability and reproducibility of the results. Furthermore, the concentrations of the compounds in the medium during the treatment were verified using Flame Atomic Absorption Spectroscopy (FAAS) or Inductively Coupled Plasma Mass Spectrometry (ICP-MS). […]
drug-free incubation. c IC50 values were determined by SRB assay. d IC50 values were determined by CellTiter-Glo® 3D chemiluminescent assay. e PI - phototoxicity index was calculated as the ratio of IC50 determined under the dark conditions / IC50 determined for 420 […]
models under irradiation conditions.

[2] = tested on: U87MG spheroids; assay: Antiproliferative activity, 3D spheroids, CellTiter-Glo 3D assay; format: cell-based, human; settings: for PI (phototoxicity index) 3D: IC50 dark / IC50 420 nm irradiated; for IC50: U87MG 3D spheroids, 90 min treatment, CellTiter-Glo 3D; for TMI (3D/2D): ratio of IC50 for 3D and 2D models under irradiation
Procedure: The antiproliferative activity of the compounds under investigation was assessed using the Sulforhodamine B (SRB) assay on both 2D cell monolayers and 3D spheroids. For the 2D cell monolayer assay, cells were seeded in 96-well tissue culture plates at a density of 3 × 10^3 cells/well in 100 μL of culture medium. Following overnight incubation in a humidified CO2 incubator, the medium was replaced, and the cells were treated with the investigated compounds in a final volume of 200 μL/well of Earle’s Balanced Salt Solution (EBSS). The cells were then exposed to the tested compounds for 1.5 h under dark conditions (5% CO2, 37 °C) and subsequently irradiated with blue light (420 nm) for 30 min at an intensity of 58 W/m^2. After treatment, the samples were washed with Phosphate-Buffered Saline (PBS) and replenished with 200 μL of culture medium. Following an additional 70-h incubation, the cells were washed with PBS, fixed with trichloroacetic acid at 4 °C for 1 h, and stained with 0.4% SRB dye for 30 min. The stained cells were dissolved with Tris (10 mM), and the cell viability was assessed by measuring the absorbance at 570 nm using an Absorbance Reader (SPARK TECAN, SCHOELLER). The absorbance readings were then converted to the percentage of control (% cell survival), and the antiproliferative effects were expressed as IC50 values, which were calculated from curves plotting cell survival (%) versus drug concentration (μM) (IC50 = the concentration of the agent that inhibits cell growth by 50%). For experiments with 3D spheroids, 2500 single cells/well were seeded on ultralow attachment U-shape 96-well plates (Corning, USA) and cultured for 72 h in 3D forming medium DMEM-F12 ham medium supplemented with growth and spheroid forming factors: 2% B27 (Thermo Fisher Scientific Inc., MA, USA), epidermal growth factor (EGF; Sigma-Aldrich, Germany, 20 ng mL^–1), fibroblast growth factor (FGF2; Sigma-Aldrich, Germany, 10 ng mL^–1), and BSA (0.15%). After the 72-h spheroid formation period, the samples were treated and irradiated as described for the 2D cultures. Subsequently, the samples were cultured in the 3D forming medium for an additional 70 h, and the antiproliferative potency of the tested compounds against spheroids was determined by assessing changes in IC50 values using the CellTiterGlo-3D assay (Promega). The luminescence signal was detected using the plate reader SPARK (Tecan, Manedorf, Switzerland), and the IC50 values were calculated from the survival curves. All experiments were conducted in triplicate to ensure the reliability and reproducibility of the results. Furthermore, the concentrations of the compounds in the medium during the treatment were verified using Flame Atomic Absorption Spectroscopy (FAAS) or Inductively Coupled Plasma Mass Spectrometry (ICP-MS).
The antiproliferative activity (IC50 valuesa) of the investigated compounds determined in 2D and 3D models of U87MG cellsb
Dark Irradiated PId Dark Irradiated PIe (3D/2D) […]
a Concentration that causes 50% inhibition of cell proliferation. b Cell monolayer or generated 3D spheroids were treated for 90 min with increasing concentrations of the investigated compounds, followed by 30 min of irradiation with blue light (420 nm; 58 Wm-2) and 70 h of drug-free incubation. c IC50 values were determined by SRB assay. d IC50 values were determined by CellTiter-Glo® 3D chemiluminescent assay. e PI - phototoxicity index was calculated as the ratio of IC50 determined under the dark conditions / IC50 determined for 420 […]
f TMI – tissue-mass index was calculated as the ratio of IC50 values determined for 3D and 2D models under irradiation conditions.

[3] = Stability in the dark by UV/vis spectroscopy; format: physicochemical; settings: DMSO, water, cell culture medium (RPMI), presence of glutathione; up to 24h
Procedure: The stability of complex Ir10 was studied in DMSO, water (1% DMSO), and RPMI (5% DMSO) using UV/vis spectroscopy at different times in the absence and presence of GSH (10 mM) or NADH (100 μM) to mimic the cellular and physiological conditions (Figure S6).

[4] = dark, 70 h drug-free incubation, read-out: IC50 2D Dark
[5] = 30 min blue light 420 nm 58 W m-2, 70 h drug-free, read-out: IC50 2D Irradiated
[6] = dark, 70 h drug-free, read-out: IC50 3D Dark
[7] = 30 min blue light 420 nm 58 W m-2, 70 h drug-free, read-out: IC50 3D Irradiated

SMILES	PI (phototoxicity index) 2D [1]	IC50 [1, 4] [µM]	IC50 [1, 5] [µM]	PI (phototoxicity index) 3D [2]	IC50 [2, 6] [µM]	IC50 [2, 7] [µM]	TMI (3D/2D) [2]	stability in the dark [3]
Cc1ccc(-c2cc3[n+]4c(c2)-c2cccc[n+]2[Ir-3]42([Cl])([c]4ccsc4-c4n(Cc5ccc(C(F)(F)F)cc5)c5ccccc5[n+]42)[n+]2ccccc2-3)cc1.F[P-](F)(F)(F)(F)F [Ir1]	3.5	4.3 ± 0.1	1.3 ± 0.1	2.9	16.4 ± 0.2	5.7 ± 0.7	4.4	
Cc1ccc(-c2cc3[n+]4c(c2)-c2cccc[n+]2[Ir-3]42([Cl])([c]4ccsc4-c4n(C)c5ccccc5[n+]42)[n+]2ccccc2-3)cc1.F[P-](F)(F)(F)(F)F [Ir8]	12	9.3 ± 0.9	0.8 ± 0.05	2.8	19.3 ± 0.7	7 ± 0.9	8.8	
Cc1ccc(-c2cc3[n+]4c(c2)-c2cccc[n+]2[Ir-3]42([Cl])([c]4ccccc4-c4n(C)c5ccccc5[n+]42)[n+]2ccccc2-3)cc1.F[P-](F)(F)(F)(F)F [Ir6]	23	23.9 ± 3.1	1 ± 0.1	3.1	26 ± 5.1	8.3 ± 1.1	8.3	
COC(=O)c1ccc2c(c1)[n+]1c(n2Cc2ccc(C(F)(F)F)cc2)-c2cccc[c]2[Ir-3]123([Cl])[n+]1ccccc1-c1cc(-c4ccc(C)cc4)cc([n+]12)-c1cccc[n+]13.F[P-](F)(F)(F)(F)F [Ir10]	15.5	34.2 ± 5.3	2.2 ± 0.9	3.9	41.3 ± 1.6	10.5 ± 0.6	4.8	stable
Cc1ccc(-c2cc3[n+]4c(c2)-c2cccc[n+]2[Ir-3]42([Cl])([c]4ccccc4-c4n(Cc5ccc(C(F)(F)F)cc5)c5ccccc5[n+]42)[n+]2ccccc2-3)cc1.F[P-](F)(F)(F)(F)F [Ir2]	16	6.9 ± 0.4	0.43 ± 0.02	3.0	14.9 ± 0.5	5 ± 0.2	11.6	
Cc1ccc(-c2cc3[n+]4c(c2)-c2cccc[n+]2[Ir-3]42([Cl])([c]4cc5ccccc5cc4-c4n(C)c5ccccc5[n+]42)[n+]2ccccc2-3)cc1.F[P-](F)(F)(F)(F)F [Ir7]	4.7	7.1 ± 0.4	1.5 ± 0.2	1.6	10.8 ± 1.6	6.7 ± 0.6	4.5	
Cc1ccc(-c2cc3[n+]4c(c2)-c2cccc[n+]2[Ir-3]42([Cl])([c]4c(ccc5c4OCO5)-c4n(C)c5ccccc5[n+]42)[n+]2ccccc2-3)cc1.F[P-](F)(F)(F)(F)F [Ir9]	4.6	6.2 ± 0.7	1.3 ± 0.2	2.6	18.9 ± 0.2	7.3 ± 0.3	5.6	
